Bridge positions count the residues as written; N and C are the ends. Ends that are not written are not given here. Peptide text beside a SMILES is read from it.
T1: IL-23:IL-23R (Homo sapiens, UniProt P29460+Q9NPF7)
T1 construct: made in house
T1 sequence (Q9NPF7 20-189): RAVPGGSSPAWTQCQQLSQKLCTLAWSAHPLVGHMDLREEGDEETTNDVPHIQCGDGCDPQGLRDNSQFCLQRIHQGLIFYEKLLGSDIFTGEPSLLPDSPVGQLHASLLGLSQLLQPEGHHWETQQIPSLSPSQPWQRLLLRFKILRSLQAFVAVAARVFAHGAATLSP
T1 sequence (P29460 23-328 partner): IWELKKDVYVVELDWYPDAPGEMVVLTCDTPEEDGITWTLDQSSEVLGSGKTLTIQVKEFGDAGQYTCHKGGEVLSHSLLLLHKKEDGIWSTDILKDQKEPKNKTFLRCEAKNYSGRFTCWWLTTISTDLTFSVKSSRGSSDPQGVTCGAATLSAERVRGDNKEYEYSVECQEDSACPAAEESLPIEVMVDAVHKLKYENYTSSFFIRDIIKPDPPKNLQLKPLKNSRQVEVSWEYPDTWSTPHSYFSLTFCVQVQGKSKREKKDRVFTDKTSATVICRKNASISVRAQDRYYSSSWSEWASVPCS

T2: IL-23 (Homo sapiens, UniProt P29460+Q9NPF7)
T2 construct: made in house
T2 sequence (Q9NPF7 20-189): T1 sequence (Q9NPF7 20-189)
T2 sequence (P29460 23-328): T1 sequence (P29460 23-328 partner)

T3: IL-23 p40 subunit (as in the crystallized IL-23) (human, UniProt P29460 23-328, Two N-Acetylglucosamine sugars modeled at Asn200)
T3 construct: Interleukin-12 subunit beta (p40), human; Chain of Wm1, written on its own for the contacts seen in the structure
T3 sequence (looked up): T1 sequence (P29460 23-328 partner)

T4: IL-23-HIS (human, UniProt Q9NPF7 20-189; P29460 23-328)
T4 construct: IL-23 p19 subunit, human; IL-12/IL-23 p40 subunit, human; also called IL-23 only; IL-23 protein
T4 sequence (looked up) 1: T1 sequence (Q9NPF7 20-189)
T4 sequence (looked up) 2: T1 sequence (P29460 23-328 partner)

T5: IL-23 (heterodimer of the p19 and p40 subunits), protein for crystallization (human, UniProt Q9NPF7 20-189; P29460 23-328, Two N-Acetylglucosamine sugars modeled at Asn200)
T5 construct: Interleukin-23 subunit alpha (p19), human; Interleukin-12 subunit beta (p40), human; attempts were made to limit glycosylation; Multiple flexible loops are missing from the model; also called hu IL-23
T5 sequence (looked up) 1: T1 sequence (Q9NPF7 20-189)
T5 sequence (looked up) 2: T1 sequence (P29460 23-328 partner)

B1: IL-23 p19 subunit (as in the crystallized IL-23) (natural protein, human, UniProt Q9NPF7 20-189, looked up)
chain: T1 sequence (Q9NPF7 20-189)
notes: Interleukin-23 subunit alpha (p19), human; Chain of Wm1, written on its own for the contacts seen in the structure
B2: IL-23R-Fc-AVI (Fc fusion, UniProt Q5VWK5 24-355, looked up)
chain: GITNINCSGHIWVEPATIFKMGMNISIYCQAAIKNCQPRKLHFYKNGIKERFQITRINKTTARLWYKNFLEPHASMYCTAECPKHFQETLICGKDISSGYPPDIPDEVTCVIYEYSGNMTCTWNAGKLTYIDTKYVVHVKSLETEEEQQYLTSSYINISTDSLQGGKKYLVWVQAANALGMEESKQLQIHLDDIVIPSAAVISRAETINATVPKTIIYWDSQTTIEKVSCEMRYKATTNQTWNVKEFDTNFTYVQQSEFYLEPNIKYVFQVRCQETGKRYWQPWSSLFFHKTPETVPQVTSKAFQHDTWNSGLTVASISTGHLTSDNRGDIG
notes: IL-23 receptor (IL-23R); also called IL-23R sensor
B3: peptide 23-652 (peptide)
peptide: DTLTKSFCYFGTWCQMYGST
modifications: disulfide 8-14
notes: selected from a cyclic peptide phage library against IL-23; residues 4-18 are ordered in the structure; also called FGT/FGL-motif containing peptide; source: synthetic peptide (CPC Scientific)

Experiments:
IL-23:IL-23R = target: T1, IL-23:IL-23R; experiment: IL-23:IL-23R protein-protein interaction assay, AlphaLISA; type: biochemical; settings: disruption of the complex formed by IL-23 and IL-23R
Experimental: For AlphaLISA assay, peptides at concentration of 10 mM were dissolved in DMSO and serial 3-fold dilutions were carried out using acoustic technology, dispensing peptides directly into the assay plate (ProxiPlate-384 Plus). The rest of the reagents were dissolved in assay buffer containing 25 mM HEPES pH 7.4, 150 mM NaCl, 0.02% Tween 20 and 0.1% BSA. IL-23-AVI was pre-incubated with peptide at the indicated concentrations for 30 min at room temperature. Then, FLAG-tagged IL-23R was added to the assay mix and incubated at room temperature for 1 hour. This was followed by addition of Streptavidin-coated donor beads and acceptor beads conjugated to anti-FLAG antibody. Final assay concentration of IL-23-AVI and FLAG-IL-23R were 1.5 nM and 3 nM, respectively. The assay plate was incubated for one additional hour at RT and read in an Envision plate reader. For TR-FRET assay, tested compounds were serially diluted in DMSO using an Echo acoustic and dispensed directly into the final assay plate. Final concentration of DMSO in the assay was 1%. Assays were performed by preincubation of the diluted compounds with IL-23R-FLAG for one hour at room temperature in assay buffer containing 25 mM HEPES, 150 mM NaCl, 0.02% Tween 20, 0.1% BSA; pH 7.4. Next, IL-23-AVI was added to the assay mix and incubated for 1 hour at room temperature. Finally, the detection reagents, Europium-labeled streptavidin and Anti-FLAG IgG conjugated to SureLight–Allophycocyanin were added and incubated overnight at room temperature. Then, assay microplates were read and values were collected as the ratio between fluorescence emission at 665 nm and 615 nm (665/615). The final values were expressed as a percentage of the DMSO treated controls. IC50 values were calculated by fitting the normalized data to a four parameter logistic equation.

IL-23 = target: T2, IL-23; experiment: SPR direct binding to captured IL-23-AVI (Biacore T200); settings: IL-23-AVI captured on streptavidin chip, 25°C, 50 μl/min, 10 mM HEPES pH 7.5, 150 mM NaCl, 0.005% P20, 3% DMSO, 1:1 binding model, multi-cycle (single cycle kinetics for 23–652 and IL-23R), n = 1, 23–447 an estimate, read-out: ka
Experimental: SPR (Biacore T200, GE Healthcare) was used to determine binding constants of the peptides against IL-23 and their competitiveness to IL-23R. All SPR experiments were performed at 25°C with flow rate of 50 μl/min. Assay buffer used in direct binding experiment was 10 mM HEPES pH 7.5, 150 mM NaCl, 0.005% P20, and 3% DMSO. Assay buffer used in competition experiment was 10 mM HEPES pH 7.5, 150 mM NaCl, 0.005% P20, and 1% BSA. All peptides were reconstituted first in DMSO as 10 mM stocks and then diluted into assay buffer. The proteins used in direct binding and competition SPR are described in S1 Table in S1 File. For direct binding of peptides against IL-23, 2000–9000 RU of IL-23-AVI was captured to streptavidin sensor chips (GE Healthcare, Series S Sensor Chip SA, BR-1005-31). Dilution series with 3-fold increment were prepared for each peptide. Initially, all peptides were tested up to 30 μM. Concentration range for some were then lowered accordingly based on affinity or nuisance behavior at high concentrations. SPR “multi-cycle” type was used for peptides 23–644, 23–437, 23–441, 23–446, and 23–447. Each cycle consisted of 30s of analyte injection and then 60s of buffer flow to monitor dissociation. “Single cycle kinetics” (SCK) type was used for 23–652 due to their long dissociation half-lives. Each SCK cycle consisted of five 60s injections of sample in increasing concentration with a final 600s of dissociation. To study IL-23 and IL-23R interaction, 200–1000 RU of IL-23-AVI and IL-23R-Fc-AVI were captured to streptavidin sensor chip. Dilution series with 3-fold increment of IL-23R-FLAG-HIS and IL-23-HIS were run in SCK cycle type as described above except the final dissociation time were 60-300s. Sensorgrams from the entire titration series for each sample were fitted globally to extract binding kinetics and affinity using Biacore T200 Evaluation Software 2.0 (GE Healthcare) according to a 1:1 binding model. To identify IL-23 binders that can block receptor binding, a competition SPR was established. In each SPR cycle, fresh IL-23R was capture (<1000 RU) by injecting 10 μg/ml of IL-23R-Fc-AVI to a Protein-A flow cell at 10 μl/min flow rate for 30s. Analyte consisted of a mixture of 20 nM of IL-23 protein and a single concentration of peptide was then injected for 30s at 50 μl/min to observe IL-23 binding. Finally, the Protein-A surface was regenerated by 10 mM Glycine pH 1.5 for 30s at 30 μl/min. IL-23 at 20 nM without peptide, “IL-23 only”, was used as control to quantify IL-23 binding without blockage; while “cold” IL-23R was used as a positive control for blockage.

[1] = target: T3, IL-23 p40 subunit (as in the …); experiment: crystal structure; IL-23:peptide mixture, 1:1 molar ratio, ~16 mg/mL; sitting-drop vapor diffusion at 8°C; 100 mM Hepes pH 7, 17% w/v PEG 3350, 150 mM potassium nitrate; 2.7 Å, space group P212121; settings: both partners purified
IL-23-HIS = target: T4, IL-23-HIS; experiment: SPR; competition SPR, 25°C; IL-23R-Fc-AVI (<1000 RU) captured on Protein-A; 20 nM IL-23 mixed with one concentration of peptide or cold IL-23R injected 30 s; 10 mM HEPES pH 7.5, 150 mM NaCl, 0.005% P20, 1% BSA; n = 1; settings: both partners purified
[2] = target: T5, IL-23 (heterodimer of the p19 and p40 …); experiment: crystal structure; IL-23:peptide mixture, 1:1 molar ratio, ~16 mg/mL; sitting-drop vapor diffusion at 8°C; 100 mM Hepes pH 7, 17% w/v PEG 3350, 150 mM potassium nitrate; 2.7 Å, space group P212121; settings: both partners purified

Molecule | AlphaLISA potency (IL-23:IL-23R) | kon (IL-23) [M⁻¹ s⁻¹] | also measured
CC(C)C[C@@H]1NC(=O)[C@H](Cc2ccc(O)cc2)NC(=O)[C@H](Cc2ccc(O)cc2)NC(=O)[C@H](CC(C)C)NC(=O)[C@@H](NC(=O)[C@H](CCC(=O)O)NC(=O)[C@@H](N)CC(C)C)CSSC[C@@H](C(=O)N[C@@H](CC(=O)O)C(=O)N[C@@H](CC(N)=O)C(=O)O)NC(=O)[C@H](C(C)C)NC(=O)[C@H](CCCCN)NC(=O)[C@H](Cc2c[nH]c3ccccc23)NC(=O)[C@H](CCCNC(=N)N)NC1=O [23–447] (H-LECLYYLRWKVCDN-OH; disulfide 3-12) | single digit micromolar | 48300 | 
CC[C@H](C)[C@H](NC(=O)[C@H](CCC(=O)O)NC(=O)[C@H](CCCCN)NC(=O)[C@@H](NC(=O)[C@@H](N)Cc1ccccc1)[C@@H](C)O)C(=O)N[C@@H](CC(=O)O)C(=O)N[C@@H](CO)C(=O)N[C@@H](Cc1c[nH]c2ccccc12)C(=O)N[C@@H](Cc1c[nH]c2ccccc12)C(=O)N[C@@H](CC(C)C)C(=O)N[C@@H](CO)C(=O)N[C@@H](CC(C)C)C(=O)N[C@@H](CCSC)C(=O)N[C@@H](CO)C(=O)N[C@@H](CO)C(=O)O [23–437] (H-FTKEIDSWWLSLMSS-OH) | single digit micromolar | 178000 | 
CC[C@H](C)[C@H](NC(=O)[C@H](CCCCN)NC(=O)[C@@H](N)CCC(N)=O)C(=O)N[C@H](C(=O)N[C@@H](CCC(N)=O)C(=O)N[C@H]1CSSC[C@@H](C(=O)N[C@@H](CC(C)C)C(=O)N[C@@H](CC(C)C)C(=O)N[C@@H](CC(N)=O)C(=O)N[C@@H](CC(=O)O)C(=O)N[C@H](C(=O)O)C(C)C)NC(=O)[C@@H]2CCCN2C(=O)[C@H](Cc2ccc(O)cc2)NC(=O)[C@H]([C@@H](C)O)NC(=O)[C@H](Cc2c[nH]c3ccccc23)NC(=O)[C@H]([C@@H](C)CC)NC(=O)[C@H]([C@@H](C)CC)NC(=O)[C@H](Cc2ccc(O)cc2)NC(=O)[C@H](C(C)C)NC1=O)[C@@H](C)O [23–441] (H-QKITQCVYIIWTYPCLLNDV-OH; disulfide 6-15) | single digit micromolar | 190000 | 
B1 |  |  | binding result [1]: binds
B2 |  |  | binding result (IL-23-HIS): binds
B3 |  |  | binding result [2]: binds

From article PMC7263589, “Integration of phage and yeast display platforms: A reliable and cost effective approach for binning of peptides as displayed on-phage” (PLoS ONE, 2020)
